The values that follow come from patent US20170198196A1, “METHODS FOR CONTROLLING SOURING IN ENGINEERED SYSTEMS” (The Regents of the University of California, priority 2014, published 2017).

Entries after “also recorded” stand apart in the source; their conditions may differ. Like-named read-outs stand apart in the source and are kept apart here.

For assay [1], the system named is marine enrichment cultures. In words: Inhibition of sulfide production (Cline assay) in marine enrichment cultures. Format: cell-based. Particulars: for IC50: read-out: IC50 Seawater Sulfide Production.
Assay [2] relates to nitrate reducing bacteria. Particulars: molybdate treated cell suspensions; cited from earlier work.
Assay [3] deals with Desulfovibrio cell suspensions. Particulars: molybdate treated, after 60 minutes; cited from earlier work.
The test system of assay [4] is marine enrichment cultures. In words: organism not typed. Particulars: read-out: IC50 Seawater Growth. Format: cell-based.
The mark [5] stands for this setting: marine enrichment cultures, SI>2 classified as selective.

Regarding `O=[Te](O)O` [tellurite], the “selectivity and potency as inhibitor of sulfidogenesis versus growth, in words” value (from here on “selectivity and potency as inhibitor”) in assay [1] was “very potent and selective inhibitors of sulfate reduction”. Regarding `O=NO` [nitrite], in assay [1], the “selectivity and potency as inhibitor” value is on record as “selective inhibitors”; the “selectivity index (SI = growth IC50/sulfide IC50)” value is given as “≈ 2”.

What is called IC50 is the concentration at which inhibition is half-maximal. As to `O=[N+]([O-])O` [nitrate], in assay [1], the “Growth/Sulfide Ratio” value came out at 41.3; the “fold higher IC50 than MFP” value was ~8 fold; the “selectivity and potency as inhibitor” value is on record as “selective inhibitors”; the IC50 amounted to 6.34 mM. On to `[O-][I+3]([O-])([O-])O` [periodate], for which the “selectivity and potency as inhibitor” value in assay [1] (setting [5]) is “nonspecific, but potent inhibitors of all growth”. As for `[O]=[Mo](=[O])([O-])[O-]` [molybdate], the “intracellular ATP relative to controls” value in assay [2] is ~80%. Besides, in assay [1], the “selectivity and potency as inhibitor” value is listed as “specific inhibitors of sulfide production”; the “selectivity index (SI = growth IC50/sulfide IC50)” value is given as 100. The “intracellular ATP relative to controls” value in assay [3] is given as ~10%. For `[O-][Cl+3]([O-])([O-])O` [perchlorate], the IC50 in assay [4] was determined as 36.3 mM. Also, in assay [1], the “Growth/Sulfide Ratio” value came out at 11.19; the “selectivity and potency as inhibitor” value is given as “selective inhibitors of sulfidogenesis”; the IC50 is 3.25 mM. For `[O]=[W](=[O])([O-])[O-]` [tungstate], in assay [1], the “selectivity and potency as inhibitor” value was “specific inhibitors of sulfide production”; the “selectivity index (SI = growth IC50/sulfide IC50)” value is recorded as 589. For `[O-][Cl+2]([O-])O` [chlorate], the “selectivity and potency as inhibitor” value in assay [1] is recorded as “selective inhibitors of sulfidogenesis”. As to `O=[Se](O)O` [selenite], the “selectivity and potency as inhibitor” value in assay [1] is “very potent and selective inhibitors of sulfate reduction”.

Regarding phosphite, the “selectivity and potency as inhibitor” value in assay [1] was “weak inhibitors and nonselective; also recorded: very weak, nonselective inhibitors of sulfidogenesis”.

As for `CS(C)(=O)=O` [dimethyl sulfone], in assay [1] (setting [5]), the “selectivity and potency as inhibitor” value is “very weak and nonspecific inhibitors”. Take `[O]=[V]([O-])([O-])[O-]` [vanadate]: the “selectivity and potency as inhibitor” value in assay [1] is recorded as “specific inhibitors of sulfide production”. For `O=S(O)O` [sulfite], in assay [1], the “selectivity and potency as inhibitor” value was “only inhibited growth and sulfidogenesis at high millimolar concentrations”. For the compound `O=S(=O)(O)O` [sulfate], the “selectivity and potency as inhibitor” value in assay [1] is “only inhibited growth and sulfidogenesis at high millimolar concentrations”. As to methanesulfonate, the “selectivity and potency as inhibitor” value in assay [1] is “very weak and nonspecific inhibitors”. Regarding `O=[Te](=O)(O)O` [tellurate], the “selectivity and potency as inhibitor” value in assay [1] was “very potent and selective inhibitors of sulfate reduction”. In the case of `O=[Se](=O)(O)O` [selenate], the “selectivity and potency as inhibitor” value in assay [1] was “very potent and selective inhibitors of sulfate reduction”. For arsenate, the “selectivity and potency as inhibitor” value in assay [1] is “not selective”. Same read-out and setting: the value for `N.NS(=O)(=O)O` [ammonium sulfamate] was “very weak and nonspecific inhibitors”; that for `OP(O)(O)=S` [thiophosphate] was “weak inhibitors and nonselective; also recorded: very weak, nonselective inhibitors of sulfidogenesis”.
